Test results taken from the supplement of paper PMC10307832.

Compound: NCC(=O)Nc1ccc(-n2nc(C(F)(F)F)cc2-c2ccc3c(ccc4ccccc43)c2)cc1 + N=C(N)NC(=N)NCCc1ccccc1 [Phenformin] (partner 250 µM)
Test: relative viability (nuclei count vs DMSO), 5 days (fraction); higher = more cells survive
Details: first compound 0.02 µM
Procedure, shortened: (§1)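 The day after seeding in 1536-well plates, lung cancer cell lines were treated by pin tool with a single drug, or with a fixed anchor-drug dose together with five library-drug doses (not always all listed) in √10 steps. After 5 days, a combined fix-and-stain solution (final 0.05% Triton X-100, 1% formaldehyde, 1 ug/ml Hoechst) was added. Nuclei counted on 4× images gave relative viability as treated counts over vehicle counts, reported as the median of duplicate plates.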

In order of rising relative viability:
1. EKVX  0.228
2. NCI-H1437  0.247
3. ABC-1  0.248
4. NCI-H661  0.267
5. EPLC-272H  0.289
6. NCI-H1651  0.313
7. NCI-H1792  0.325
8. NCI-H1915  0.367
9. NCI-H3122  0.37
10. NCI-H1975  0.392
11. HCC-827  0.397
12. RERF-LC-KJ  0.41
13. NCI-H2023  0.414
14. NCI-H1734  0.421
15. NCI-H650  0.422
16. NCI-H2228  0.432
17. HCC-15  0.438
18. 201T  0.448
19. NCI-H647  0.451
20. NCI-H1355  0.465
21. NCI-H460  0.482
22. PC-3 [JPC-3]  0.497
23. NCI-H2347  0.51
24. SK-LU-1  0.514
25. LXF-289  0.516
26. LC-2-ad  0.531
27. PC-14  0.553
28. CAL-12T  0.572
29. NCI-H1755  0.582
30. NCI-H1563  0.606
31. NCI-H23  0.702
32. NCI-H441  0.898

Same assay, conditions: first compound 0.06325 µM

In order of rising relative viability:
1. ABC-1  0.233
2. NCI-H661  0.259
3. EKVX  0.273
4. NCI-H1437  0.302
5. NCI-H1915  0.364
6. NCI-H1792  0.364
7. NCI-H1734  0.365
8. EPLC-272H  0.366
9. NCI-H1975  0.375
10. NCI-H1651  0.387
11. NCI-H2347  0.394
12. HCC-827  0.431
13. NCI-H3122  0.432
14. NCI-H650  0.44
15. NCI-H2023  0.441
16. RERF-LC-KJ  0.458
17. NCI-H2228  0.484
18. PC-3 [JPC-3]  0.486
19. 201T  0.489
20. NCI-H1355  0.497
21. HCC-15  0.497
22. NCI-H460  0.504
23. LXF-289  0.527
24. NCI-H647  0.576
25. SK-LU-1  0.584
26. NCI-H1755  0.587
27. CAL-12T  0.601
28. PC-14  0.64
29. LC-2-ad  0.643
30. NCI-H1563  0.664
31. NCI-H23  0.801
32. NCI-H441  0.819

Same assay, conditions: first compound 0.2 µM

In order of falling relative viability:
1. NCI-H441  0.954
2. NCI-H23  0.802
3. NCI-H1563  0.658
4. NCI-H647  0.629
5. SK-LU-1  0.617
6. LC-2-ad  0.609
7. CAL-12T  0.586
8. NCI-H1755  0.577
9. NCI-H2347  0.547
10. PC-14  0.543
11. NCI-H460  0.505
12. LXF-289  0.494
13. NCI-H650  0.48
14. HCC-15  0.476
15. NCI-H1975  0.439
16. PC-3 [JPC-3]  0.439
17. NCI-H1355  0.419
18. NCI-H1734  0.414
19. RERF-LC-KJ  0.412
20. 201T  0.408
21. HCC-827  0.406
22. NCI-H2023  0.403
23. NCI-H1915  0.371
24. NCI-H3122  0.364
25. NCI-H2228  0.352
26. NCI-H1437  0.331
27. NCI-H1651  0.327
28. NCI-H1792  0.297
29. NCI-H661  0.268
30. EPLC-272H  0.261
31. EKVX  0.218

Same assay, conditions: first compound 0.6325 µM

In order of falling relative viability:
1. NCI-H441  1.01
2. NCI-H23  0.823
3. NCI-H1563  0.633
4. LC-2-ad  0.614
5. NCI-H1755  0.606
6. CAL-12T  0.576
7. PC-14  0.57
8. NCI-H460  0.537
9. LXF-289  0.506
10. SK-LU-1  0.502
11. HCC-15  0.497
12. PC-3 [JPC-3]  0.485
13. NCI-H1355  0.483
14. 201T  0.466
15. NCI-H647  0.463
16. NCI-H2023  0.454
17. NCI-H1975  0.424
18. NCI-H1734  0.422
19. RERF-LC-KJ  0.409
20. NCI-H2347  0.386
21. NCI-H3122  0.386
22. HCC-827  0.385
23. NCI-H650  0.379
24. NCI-H1651  0.371
25. NCI-H1915  0.349
26. NCI-H1792  0.337
27. EPLC-272H  0.324
28. NCI-H1437  0.308
29. NCI-H661  0.295
30. NCI-H2228  0.266
31. EKVX  0.236
32. ABC-1  0.225

Same assay, conditions: first compound 2 µM

In order of rising relative viability:
1. EKVX  0.219
2. ABC-1  0.245
3. NCI-H661  0.27
4. NCI-H2347  0.281
5. EPLC-272H  0.294
6. NCI-H2228  0.31
7. NCI-H1651  0.313
8. NCI-H1437  0.339
9. NCI-H1915  0.369
10. NCI-H3122  0.377
11. HCC-827  0.385
12. NCI-H1734  0.395
13. RERF-LC-KJ  0.403
14. NCI-H1792  0.411
15. NCI-H2023  0.412
16. NCI-H1975  0.422
17. 201T  0.446
18. NCI-H460  0.458
19. NCI-H650  0.474
20. PC-3 [JPC-3]  0.492
21. HCC-15  0.506
22. NCI-H1355  0.522
23. SK-LU-1  0.55
24. NCI-H647  0.558
25. LXF-289  0.56
26. NCI-H1755  0.607
27. CAL-12T  0.627
28. PC-14  0.642
29. LC-2-ad  0.649
30. NCI-H1563  0.712
31. NCI-H23  0.799
32. NCI-H441  0.844

Compound: C1CSC2=C(C(=O)N1)SC3=C2C=C(C=C3)O [kb NB 142-70] + N=C(N)NC(=N)NCCc1ccccc1 [Phenformin] (partner 250 µM)
Test: as above
Details: first compound 0.1 µM
Procedure, shortened: as §1

In order of falling relative viability:
1. NCI-H441  0.881
2. NCI-H23  0.794
3. PC-14  0.658
4. NCI-H1563  0.656
5. LC-2-ad  0.618
6. NCI-H1755  0.586
7. CAL-12T  0.565
8. NCI-H460  0.55
9. SK-LU-1  0.546
10. LXF-289  0.526
11. NCI-H647  0.502
12. NCI-H1355  0.485
13. HCC-15  0.476
14. PC-3 [JPC-3]  0.475
15. NCI-H650  0.462
16. 201T  0.453
17. HCC-827  0.415
18. NCI-H2347  0.412
19. NCI-H3122  0.412
20. RERF-LC-KJ  0.409
21. NCI-H1975  0.394
22. NCI-H2023  0.382
23. EPLC-272H  0.38
24. NCI-H1734  0.371
25. NCI-H1915  0.365
26. NCI-H1651  0.327
27. NCI-H1437  0.308
28. NCI-H661  0.286
29. NCI-H2228  0.263
30. EKVX  0.24
31. ABC-1  0.223

Same assay, conditions: first compound 1 µM

In order of falling relative viability:
1. NCI-H441  0.894
2. NCI-H23  0.732
3. NCI-H1563  0.688
4. CAL-12T  0.601
5. NCI-H460  0.596
6. NCI-H1755  0.587
7. PC-14  0.56
8. NCI-H647  0.54
9. LC-2-ad  0.536
10. LXF-289  0.526
11. HCC-15  0.491
12. PC-3 [JPC-3]  0.472
13. NCI-H650  0.465
14. RERF-LC-KJ  0.463
15. SK-LU-1  0.451
16. NCI-H1355  0.451
17. NCI-H2023  0.44
18. 201T  0.418
19. NCI-H3122  0.396
20. HCC-827  0.387
21. NCI-H1975  0.366
22. NCI-H1915  0.359
23. NCI-H2347  0.349
24. NCI-H1734  0.346
25. NCI-H1651  0.321
26. NCI-H2228  0.317
27. NCI-H1792  0.297
28. NCI-H1437  0.292
29. EPLC-272H  0.267
30. NCI-H661  0.263
31. ABC-1  0.24
32. EKVX  0.238

Same assay, conditions: first compound 3.162 µM

In order of rising relative viability:
1. ABC-1  0.166
2. NCI-H2228  0.178
3. EPLC-272H  0.189
4. NCI-H1651  0.205
5. NCI-H1975  0.235
6. EKVX  0.244
7. NCI-H661  0.247
8. NCI-H1915  0.258
9. NCI-H1437  0.262
10. SK-LU-1  0.265
11. NCI-H1734  0.267
12. HCC-827  0.339
13. NCI-H460  0.347
14. NCI-H3122  0.347
15. NCI-H2347  0.381
16. NCI-H2023  0.391
17. NCI-H1792  0.392
18. NCI-H650  0.429
19. NCI-H647  0.44
20. RERF-LC-KJ  0.445
21. NCI-H1355  0.453
22. LXF-289  0.457
23. LC-2-ad  0.458
24. PC-3 [JPC-3]  0.474
25. CAL-12T  0.485
26. 201T  0.492
27. HCC-15  0.518
28. NCI-H23  0.53
29. PC-14  0.619
30. NCI-H1563  0.624
31. NCI-H441  0.633
32. NCI-H1755  0.638
